Legend:
LmDdi1_1–390 (LmDdi1) [1] = target: T1, LmDdi1_1–390 (LmDdi1) (Leishmania major, UniProt I7HUG0); test: bio-layer interferometry, protein on Ni-NTA sensor, […] Langmuir global fit; assay type: binding; details: 20 mM MES pH 6.0, 200 mM NaCl, 1% DMSO; inhibitor 75-600 μM; weak signal, affinity could not be quantified
T1 construct: gene DDI1; full-length residues 1-390 (UBL, RVP and UBA domains), synthetic gene 1170 bp, N-terminal His6 tag (pET-28a, NdeI/HindIII), E. coli BL21; Ni-NTA and gel filtration; immobilised by the tag on Ni-NTA sensor; RVP domain homodimer in crystal; PDB 5YS4 from this construct, 5YQ8 from construct 184-390
T1 sequence (I7HUG0 1-390): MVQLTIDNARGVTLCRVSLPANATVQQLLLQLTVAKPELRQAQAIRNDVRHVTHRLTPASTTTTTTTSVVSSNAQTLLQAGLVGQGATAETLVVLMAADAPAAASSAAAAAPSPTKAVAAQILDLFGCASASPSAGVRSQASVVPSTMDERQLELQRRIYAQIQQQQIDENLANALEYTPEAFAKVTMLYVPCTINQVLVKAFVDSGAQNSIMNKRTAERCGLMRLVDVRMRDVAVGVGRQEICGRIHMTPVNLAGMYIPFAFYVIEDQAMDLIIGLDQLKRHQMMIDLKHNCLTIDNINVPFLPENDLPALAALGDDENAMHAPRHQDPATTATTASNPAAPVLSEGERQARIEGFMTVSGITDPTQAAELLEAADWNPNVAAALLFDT

LmDdi1_1–390 (LmDdi1) [2] = target: T1, LmDdi1_1–390 (LmDdi1); test: as above; assay type: binding

**Q.** For `Cc1c(O)cccc1C(=O)N[C@@H](CSc1ccccc1)[C@H](O)CN1C[C@H]2CCCC[C@H]2C[C@H]1C(=O)NC(C)(C)C` [nelfinavir], which “bio-layer interferometry, protein on Ni-NTA sensor, 1:1 Langmuir global fit” value (LmDdi1_1–390 (LmDdi1) [1]) is on record?
**A.** Nelfinavir showed much less binding, and the binding affinity could not be quantified

**Q.** For `CC(C)(C)NC(=O)[C@@H]1C[C@@H]2CCCC[C@@H]2CN1C[C@@H](O)[C@H](Cc1ccccc1)NC(=O)[C@H](CC(N)=O)NC(=O)c1ccc2ccccc2n1` [saquinavir], which Kd (LmDdi1_1–390 (LmDdi1) [2]) is on record?
**A.** 314 ± 12.8 µM
